Drawing on ChEMBL document CHEMBL4406799, “Identification of benzo[cd]indol-2(1H)-ones as novel Atg4B inhibitors via a structure-based virtual screening and a novel AlphaScreen assay” (Eur J Med Chem, 2019), this text covers inhibition, IC50 and Activity for ten compounds.

One assay deals with T1, Papain (Carica papaya) (UniProt P00784).
T1 sequence (whole entry): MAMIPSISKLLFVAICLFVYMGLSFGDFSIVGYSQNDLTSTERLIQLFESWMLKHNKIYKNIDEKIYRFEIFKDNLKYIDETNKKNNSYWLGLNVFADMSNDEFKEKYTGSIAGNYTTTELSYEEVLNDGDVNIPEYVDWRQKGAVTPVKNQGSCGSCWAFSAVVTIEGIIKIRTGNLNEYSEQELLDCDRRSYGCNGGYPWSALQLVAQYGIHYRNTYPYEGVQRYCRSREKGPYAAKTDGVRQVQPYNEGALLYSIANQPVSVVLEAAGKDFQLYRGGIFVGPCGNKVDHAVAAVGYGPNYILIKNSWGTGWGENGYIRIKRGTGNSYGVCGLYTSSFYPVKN
The assay is described as follows: Inhibition of papaya papain at 50 uM using L-pyroglutamyl-L-phenylalanyl-L-leucine-p-nitroanilide as substrate measured after 30 mins.

Assay [1] addresses T2, Cysteine protease ATG4B (Homo sapiens, UniProt Q9Y4P1).
T2 sequence (Q9Y4P1 whole entry): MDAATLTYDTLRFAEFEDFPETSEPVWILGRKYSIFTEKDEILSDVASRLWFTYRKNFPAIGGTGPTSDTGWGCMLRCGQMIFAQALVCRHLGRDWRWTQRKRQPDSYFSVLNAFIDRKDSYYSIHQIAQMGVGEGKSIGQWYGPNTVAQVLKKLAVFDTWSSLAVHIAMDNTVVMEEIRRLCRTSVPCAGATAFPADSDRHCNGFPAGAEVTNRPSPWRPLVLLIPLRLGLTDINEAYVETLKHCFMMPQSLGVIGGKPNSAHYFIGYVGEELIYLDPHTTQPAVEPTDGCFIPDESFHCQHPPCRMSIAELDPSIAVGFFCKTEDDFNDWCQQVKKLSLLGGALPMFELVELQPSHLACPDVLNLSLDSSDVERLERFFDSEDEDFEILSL
As to the kind of experiment: Inhibition of ATG4B (unknown origin) using N-(His)6-LC3B(L123C)Biotin as substrate preincubated for 30 mins and measured after 1 hr by AlphaScreen method. On the technique in general: In Alpha technology, singlet oxygen from a donor bead excites a nearby acceptor bead.

In assay [2] the target is T2, Cysteine protease ATG4B. The assay is described as follows: Inhibition of ATG4B (unknown origin) using N-(His)6-LC3B(L123C) as substrate preincubated for 1 hr followed by substrate addition and measured after 30 mins MS-based analysis.
In assay [3] the test system is HT-29. The note with it: Homo sapiens, 100 to 200 uM.
Description: Inhibition of autophagic flux in human HT-29 cells assessed as increase in LC3-2 expression at 100 to 200 uM after 16 hrs by Western blot analysis
Assay [4] has as its system HT-29. The note with it: Homo sapiens, 100 to 200 uM. This is another data set of the same source.
Description: Inhibition of autophagic flux in human HT-29 cells assessed as reduction in p62 degradation at 100 to 200 uM after 16 hrs by Western blot analysis
The subject of assay [5] is HT-29. The assay is described as follows: Antiproliferative activity against human HT-29 cells assessed as reduction in cell viability at 75 uM in presence of oxaliplatin after 24 to 72 hrs by MTT assay. It is filed as functional, cell-based. Background: Formazan colour is commonly taken as a measure of viable cells.
In assay [6] the target is T2, Cysteine protease ATG4B. As to the kind of experiment: Inhibition of recombinant ATG4B (unknown origin) expressed in Escherichia coli BL21(DE3) using LC3-PLA2 as substrate by fluoroscence based assay.

Active and inactive are the calls of the source. The rule behind the calls is not given here.

With `O=C(N[C@@H](Cc1ccccc1)C(=O)CCl)OCc1ccccc1`, the inhibition entry at Papain (Carica papaya) was “Active”.

Broadly, the IC50 is the concentration at which inhibition is half-maximal. For the compound `C=CCCC(O)CNc1cc2c3c(cccc3c1)NC2=O` (stereo unspecified), the IC50 result on Cysteine protease ATG4B [1] is listed as “Not Active”. With `CCCCC(O)CNc1cc2c3c(cccc3c1)NC2=O` (stereo unspecified), the IC50 at Cysteine protease ATG4B [1] (read-out: IC50) was 235 µM; against Cysteine protease ATG4B [2], 215 µM. Turning to `O=C1Nc2cccc3cc(NCC(O)CCl)cc1c23` (stereo unspecified), on Papain (Carica papaya), the inhibition entry is “inactive”. For `O=C1Nc2ccc(NCC(O)CCl)c3cccc1c23` (stereo unspecified), the figures for the IC50 on Cysteine protease ATG4B [1] (read-out: IC50) and against Cysteine protease ATG4B [2] were more than 300 µM and 280 µM, respectively. As to `CCCCC(O)CNc1cc2c3c(cccc3c1)C(=O)N2` (stereo unspecified), at Papain (Carica papaya), the inhibition entry is “inactive”. In addition, the inhibition entry in the assay with HT-29 [3] and in the assay on HT-29 [4] was “Active” each time. The outcome in the assay on HT-29 [5] was Active. For `Oc1ccc(C2=Nc3cccc4cccc(c34)N2)cc1`, the figures for the IC50 at Cysteine protease ATG4B [1] (read-out: IC50) and on Cysteine protease ATG4B [2] were 300 µM and 150 µM, respectively.

For `O=C(/C=C1/Nc2cc(Cl)c(Cl)cc2NC1=O)N/N=C/c1ccccc1O`, the IC50 at Cysteine protease ATG4B [1] (read-out: IC50) was determined as 315 µM.

For the compound `O=C1NC(=O)c2cc(NCC(O)CCl)cc3cccc1c23` (stereo unspecified), the concentration for half-maximal inhibition (IC50) entry at Cysteine protease ATG4B [1] was “Not Active”. For `O=c1oc2c(O)c(O)cc3c(=O)oc4c(O)c(O)cc1c4c23` [ELLAGIC ACID], the IC50 on Cysteine protease ATG4B [6] stood at 3 µM.
